Assay results from patent publication US7732599B2, “Process for preparing tetrahydrobiopterin and analogs of tetrahydrobiopterin” (BioMarin Pharmaceutical Inc., priority 2003, dated 2010).

Test: Solubility in the reaction solvent dimethylaminoacetate at room temperature
Type: physicochemical
Conditions: described as low solubility
Description: The conversion of the primary hydroxyl of L-Neopterin to a thioether was performed to prepare 6-((1R,2R)-1,2-dihydroxy-3-phenylthiopropyl)-2-[(methylethyl)amino]-3-hydropteridin-4-one (the compound labeled “15” in FIG. 4). To a flask containing 50 grams of 6-((2S,1R)-1,2,3-trihydroxypropyl)-2-[(1Z)-1-aza-2-(dimethylamino)vinyl]-3-hydropteridin-4-one (DMA-Neopterin, the compound labeled “6” in FIG. 2) and 400 ml of dimethylaminoacetate was added to the flask. To this stirring mixture 1 molar equivalent of diphenyl disulfide and tributylphosphine were added to the flask. […] It is believed that the thioether product is more soluble in dimethylaminoacetate. The reaction mixture was allowed to was allowed to stir for 4 hours at room temperature. Nine grams of the thioether product was isolated.

solubility in dimethylaminoacetate: approximately 3.5 mg/ml
Structure (SMILES): CN(C)C=Nc1nc2ncc([C@@H](O)[C@@H](O)CO)nc2c(=O)[nH]1 [DMA-Neopterin, 6-((2S,1R)-1,2,3-trihydroxypropyl)-2-[(1Z)-1-aza-2-(dimethylamino)vinyl]-3-hydropteridin-4-one]
